Results reported in publication PMC4425353 (Science (New York, N.Y.), 2015).

How the values were obtained:
LBP-8 = target: T1, LBP-8 (Caenorhabditis elegans, UniProt O02324); test: fluorescence displacement of […],8-ANS; format: binding
T1 sequence (O02324 1-137): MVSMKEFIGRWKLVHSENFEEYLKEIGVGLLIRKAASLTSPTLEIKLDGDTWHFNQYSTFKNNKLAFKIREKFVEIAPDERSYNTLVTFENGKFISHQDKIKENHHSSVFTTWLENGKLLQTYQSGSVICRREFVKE

NHR-80 = target: T2, NHR-80 (Caenorhabditis elegans, UniProt Q8ITW8); test: intrinsic fluorescence quenching of GST-NHR-80 with increasing OEA; format: binding
T2 sequence (Q8ITW8 1-504): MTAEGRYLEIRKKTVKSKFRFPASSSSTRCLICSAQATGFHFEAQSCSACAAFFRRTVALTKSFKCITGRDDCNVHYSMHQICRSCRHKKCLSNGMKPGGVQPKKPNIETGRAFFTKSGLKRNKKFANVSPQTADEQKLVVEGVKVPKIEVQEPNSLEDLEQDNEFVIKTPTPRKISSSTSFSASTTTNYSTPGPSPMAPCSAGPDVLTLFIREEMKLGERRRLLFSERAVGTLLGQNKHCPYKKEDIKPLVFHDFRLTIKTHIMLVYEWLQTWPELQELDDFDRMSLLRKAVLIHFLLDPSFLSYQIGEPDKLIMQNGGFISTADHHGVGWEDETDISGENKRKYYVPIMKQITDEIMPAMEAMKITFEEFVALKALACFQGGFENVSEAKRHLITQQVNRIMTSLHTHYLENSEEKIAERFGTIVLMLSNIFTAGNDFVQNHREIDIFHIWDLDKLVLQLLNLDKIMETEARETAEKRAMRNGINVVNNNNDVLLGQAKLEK

| SMILES | fluorescence displacement of 1,8-ANS (LBP-8) | Kd (NHR-80) [µM] |
| --- | --- | --- |
| CCCCC/C=C\C/C=C\C/C=C\C/C=C\CCCC(=O)O [AA, arachidonic acid] | In fluorescence-based binding assays, all four lipids bound to LBP-8 | – |
| CC/C=C\C/C=C\C/C=C\C/C=C\CCCCCCC(=O)O [ω-3 AA, ω-3 arachidonic acid] | In fluorescence-based binding assays, all four lipids bound to LBP-8 | – |
| CCCCC/C=C\C/C=C\C/C=C\CCCCCCC(=O)O [DGLA, dihomo-γ-linolenic acid] | In fluorescence-based binding assays, all four lipids bound to LBP-8 | – |
| CCCCCCCC/C=C\CCCCCCCC(=O)NCCO [OEA, oleoylethanolamide] | – | 7.84 |
